According to ChEMBL document CHEMBL1649090, “Discovery of (7R)-14-cyclohexyl-7-{[2-(dimethylamino)ethyl](methyl) amino}-7,8-dihydro-6H-indolo[1,2-e][1,5]benzoxazocine-11-carboxylic acid (MK-3281), a potent and orally bioavailable finger-loop inhibitor of the hepatitis C virus NS5B polymerase” (J Med Chem, 2011):

Test: Intrinsic clearance in human liver microsomes assessed per mg of protein
Type: ADME, Microsome

## CN(C)CCN(C)[C@H]1COc2ccccc2-c2c(C3CCCCC3)c3ccc(C(=O)O)cc3n2C1 [MK-3281]
  microsomal CLint: 7 µL/min/mg
